Measured values taken from publication PMC12410356 (International Journal for Parasitology: Drugs and Drug …, 2025).

Assays:
[1] = tested on: E. multilocularis metacestode vesicles; assay: Phosphoglucose isomerase (PGI) release assay (damage-marker release) on metacestode vesicles; type: cell-based, Echinococcus multilocularis; conditions: overview screen, 10 μM, singlets, relative to 0.1 % Triton X-100, DMSO subtracted; for PGI d5 (relative PGI release): 5 days; for PGI d12 (relative PGI release): 12 days
[2] = tested on: E. multilocularis metacestode vesicles; assay: Metacestode vesicle viability assay (ATP, CellTiter-Glo); type: cell-based, Echinococcus multilocularis
Description: Viability was assessed after 12 days using the same metacestode vesicles as for the PGI release assay. Triton X-100 was added to each well to a final concentration of 0.1 %. Subsequently the metacestode vesicles were broken mechanically and 50 μL of the supernatant was mixed with 50 μL of CellTiter-Glo® buffer (Promega, Dübendorf, Switzerland). Measurements were performed on a HIDEX Sense microplate reader.

[3] = overview screen, 10 μM, singlets, 12 days, relative to DMSO control

Row | Structure (SMILES) | PGI d5 (relative PGI release) [1] [%] | PGI d12 (relative PGI release) [1] [%] | Viability d12 (relative viability) [2, 3] [%] | Viability d12 (relative viability) ([2]; 10 µM) [%]
1 | Cl.N=C(N)c1ccc(COc2ccc(Cl)cc2)cc1 [MMV1579844] | -0.5727 | 10.4621 | 5.845 | 
2 | O=C(NCc1cccc2ccccc12)c1cccs1 [MMV1579845] | -2.677 | -26.5326 | 53.7721 | 
3 | COc1cc(Cc2cc(N)nc(N)n2)cc(OC)c1OC [MMV1579846] | 1.265 | 19.1796 | 26.7191 | 
4 | Cc1ccn2c(C(=O)NCc3ccccc3)c(C)nc2c1 [MMV1579847] | -1.164 | -2.526 | 87.8278 | 
5 | N[C@@H]1CN(c2c(F)cc3c(=O)c(C(=O)O)cn([C@@H]4C[C@@H]4F)c3c2Cl)CC12CC2 [MMV1579850] | -2.37 | -5.627 | 103.25 | 
6 | O=C(O)c1ccccc1Sc1ncnc2sc3c(c12)CCC3 [MMV1579878] | -1.729 | -24.5374 | 137.353 | 
7 | COc1cc(NCc2ccc3nc(N)nc(N)c3c2C)cc(OC)c1OC [MMV1580173] | -1.642 | -23.9013 |  | 66.8811
8 | C[C@H](Cn1cnc2c(N)ncnc21)OCP(=O)(O)O [MMV1580478] | 0.0562 | -19.3802 | 132.93 | 
9 | CN(C)CC(=O)Nc1ccc2[nH]c(=O)c3ccccc3c2c1 [MMV1580480] | -0.09241 | -0.9318 | 169.884 | 
10 | CN1CCN(Cc2ccc(-c3cnc4[nH]cc(-c5ccc6[nH]ccc6c5)c4c3)cc2)CC1 [MMV1580482] | 0.2177 | 0.07079 | 108.591 | 
11 | CN(C)CCCOc1ccc(-c2ccc3ncc4c(c3c2)n(C2CCOCC2)c(=O)n4C)cn1 [MMV1580483] | -0.0428 | 2.3899 |  | 49.6824
12 | COc1ccccc1NC(=O)c1ccccc1Sc1ccc([N+](=O)[O-])cc1 [MMV1580484] | -0.1612 | 8.961 | 125.738 | 
13 | COc1ccc(OCc2ccc(COc3c(Cl)cccc3Cl)cc2)c(Cl)c1 [MMV1580485] | -0.2661 | -0.7114 | 122.098 | 
14 | Cc1nc(N(C)C(=O)Cc2ccc(-c3ccccn3)cc2)sc1S(N)(=O)=O [MMV1580486] | -0.111 | 0.7043 | 136.799 | 
15 | C/C(=N\NC(=O)C1CC1c1ccccc1)c1ccc(NC(=O)c2ccco2)cc1 (stereo not drawn) [MMV1580487] | -1.203 | -0.8271 | 105.695 | 
16 | CN(C)CCCNC(=O)c1ccc(-c2cc(O)c3ncccc3c2)cc1 [MMV1580488] | -1.606 | -1.51 | 174.002 | 
17 | CC[N+]1(C/C2=C/CCCCCC2)CCC(NC(=O)C2c3cc(Cl)ccc3Oc3ccc(Cl)cc32)CC1.[I-] (stereo not drawn) [MMV1580489] | 1.482 | -2.113 | 73.6372 | 
18 | c1cnc(NCc2ccc(CNc3ncccn3)cc2)nc1 [MMV1580490] | 0.6457 | 0.4288 | 45.3723 | 
19 | CCOC(=O)/C=C/[C@H](C[C@@H]1CCNC1=O)NC(=O)[C@@H](CC(=O)[C@@H](NC(=O)c1cc(C)on1)C(C)C)Cc1ccc(F)cc1 [MMV1580491] | 0.4485 | -17.2617 | 181.789 | 
